Assay results published in ChEMBL document CHEMBL5120824, “Synthesis and pharmacological validation of fluorescent diarylsulfonylurea analogues as NLRP3 inhibitors and imaging probes” (Eur J Med Chem, 2022).
Active and inactive are the calls of the source. The calls are words filed in the database; no cut-off is given here.

Assays:
[1] = Cytotoxicity against human THP-1 assessed as reduction in cell viability measured after 72 hrs by CCK-8 assay; format: toxicity, cell-based; conditions: THP-1 cells
[2] = target: NACHT, LRR and PYD domains-containing protein 3 (Homo sapiens, UniProt Q96P20); test: Inhibition of NLRP3 inflammasome activation in PMA differentiated LPS-primed human THP-1 cells assessed as reduction in nigericin-induced IL-1beta level pretreated for 2 hrs followed by nigericin addition and measured after 30 mins by ELISA; format: cell-based
[3] = Fluorescence property of the compound in DMSO assessed as maximum emission wavelength; format: physicochemical
[4] = Fluorescence property of the compound in DMSO assessed as maximum absorption wavelength; format: physicochemical
[5] = Fluorescence property of the compound in DMSO assessed as molar extinction coefficient; format: physicochemical
[6] = Fluorescence property of the compound in DMSO assessed as quantum yield; format: physicochemical
[7] = target: NACHT, LRR and PYD domains-containing protein 3 (Mus musculus) (UniProt Q8R4B8); test: Binding affinity to NLRP3 in mouse RAW264.7 cells assessed as thermal stabilization at 100 uM at 52 to 56 degreeC incubated for 6 hrs by cellular thermal shift assay; format: cell-based
[8] = Drug distribution in cytoplasm of mouse RAW264.7 cells expressing NLRP3 assessed as increase in green fluorescence at 10 uM incubated for 0.5 hrs by Hoechst 33342 staining based confocal microscopic analysis; format: ADME, subcellular; conditions: raw264.7, 0.5 h
[9] = target: NACHT, LRR and PYD domains-containing protein 3 (Mus musculus) (UniProt Q8R4B8); test: Binding affinity to NLRP3 in mouse RAW264.7 cells assessed as increase in mean fluorescence intensity at 10 uM incubated for 30 mins by beckman coulter based flow cytometry analysis; format: cell-based
[10] = target: NACHT, LRR and PYD domains-containing protein 3 (Mus musculus) (UniProt Q8R4B8); test: Binding affinity to NLRP3 in mouse RAW264.7 cells assessed as increase in mean fluorescence intensity at 10 uM preincubated with LPS for 3 hrs followed by compound addition and measured after 30 mins by beckman coulter based flow cytometry analysis; format: cell-based

Sequence of NACHT, LRR and PYD domains-containing protein 3 (Mus musculus) (Q8R4B8 whole entry, the tested form may be a part): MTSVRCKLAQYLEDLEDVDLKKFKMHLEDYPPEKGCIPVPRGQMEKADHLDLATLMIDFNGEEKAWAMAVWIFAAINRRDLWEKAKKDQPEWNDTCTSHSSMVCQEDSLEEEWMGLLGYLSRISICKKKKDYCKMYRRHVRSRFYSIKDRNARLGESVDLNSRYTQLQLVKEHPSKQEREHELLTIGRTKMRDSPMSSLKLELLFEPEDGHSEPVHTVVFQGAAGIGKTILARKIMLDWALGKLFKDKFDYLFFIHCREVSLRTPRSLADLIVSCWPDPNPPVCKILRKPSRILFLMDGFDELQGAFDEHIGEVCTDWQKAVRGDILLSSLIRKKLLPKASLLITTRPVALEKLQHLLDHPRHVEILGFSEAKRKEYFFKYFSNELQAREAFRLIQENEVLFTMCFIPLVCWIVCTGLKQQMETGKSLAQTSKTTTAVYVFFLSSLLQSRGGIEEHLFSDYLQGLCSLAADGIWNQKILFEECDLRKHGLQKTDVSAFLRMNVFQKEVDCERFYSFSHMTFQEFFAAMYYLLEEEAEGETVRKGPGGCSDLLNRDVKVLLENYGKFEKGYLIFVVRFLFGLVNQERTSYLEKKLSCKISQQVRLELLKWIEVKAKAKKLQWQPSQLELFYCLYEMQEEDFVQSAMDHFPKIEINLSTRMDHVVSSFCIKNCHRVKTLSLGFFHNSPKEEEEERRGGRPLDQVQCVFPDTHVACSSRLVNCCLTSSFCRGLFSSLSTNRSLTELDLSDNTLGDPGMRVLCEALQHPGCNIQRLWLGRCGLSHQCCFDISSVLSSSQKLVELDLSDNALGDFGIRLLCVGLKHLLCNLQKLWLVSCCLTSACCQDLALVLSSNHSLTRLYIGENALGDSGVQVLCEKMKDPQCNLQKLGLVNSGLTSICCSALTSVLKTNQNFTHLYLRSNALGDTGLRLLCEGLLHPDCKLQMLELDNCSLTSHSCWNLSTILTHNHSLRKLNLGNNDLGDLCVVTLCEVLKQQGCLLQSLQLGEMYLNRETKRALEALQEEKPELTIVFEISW
Sequence of NACHT, LRR and PYD domains-containing protein 3 (Q96P20 whole entry, the tested form may be a part): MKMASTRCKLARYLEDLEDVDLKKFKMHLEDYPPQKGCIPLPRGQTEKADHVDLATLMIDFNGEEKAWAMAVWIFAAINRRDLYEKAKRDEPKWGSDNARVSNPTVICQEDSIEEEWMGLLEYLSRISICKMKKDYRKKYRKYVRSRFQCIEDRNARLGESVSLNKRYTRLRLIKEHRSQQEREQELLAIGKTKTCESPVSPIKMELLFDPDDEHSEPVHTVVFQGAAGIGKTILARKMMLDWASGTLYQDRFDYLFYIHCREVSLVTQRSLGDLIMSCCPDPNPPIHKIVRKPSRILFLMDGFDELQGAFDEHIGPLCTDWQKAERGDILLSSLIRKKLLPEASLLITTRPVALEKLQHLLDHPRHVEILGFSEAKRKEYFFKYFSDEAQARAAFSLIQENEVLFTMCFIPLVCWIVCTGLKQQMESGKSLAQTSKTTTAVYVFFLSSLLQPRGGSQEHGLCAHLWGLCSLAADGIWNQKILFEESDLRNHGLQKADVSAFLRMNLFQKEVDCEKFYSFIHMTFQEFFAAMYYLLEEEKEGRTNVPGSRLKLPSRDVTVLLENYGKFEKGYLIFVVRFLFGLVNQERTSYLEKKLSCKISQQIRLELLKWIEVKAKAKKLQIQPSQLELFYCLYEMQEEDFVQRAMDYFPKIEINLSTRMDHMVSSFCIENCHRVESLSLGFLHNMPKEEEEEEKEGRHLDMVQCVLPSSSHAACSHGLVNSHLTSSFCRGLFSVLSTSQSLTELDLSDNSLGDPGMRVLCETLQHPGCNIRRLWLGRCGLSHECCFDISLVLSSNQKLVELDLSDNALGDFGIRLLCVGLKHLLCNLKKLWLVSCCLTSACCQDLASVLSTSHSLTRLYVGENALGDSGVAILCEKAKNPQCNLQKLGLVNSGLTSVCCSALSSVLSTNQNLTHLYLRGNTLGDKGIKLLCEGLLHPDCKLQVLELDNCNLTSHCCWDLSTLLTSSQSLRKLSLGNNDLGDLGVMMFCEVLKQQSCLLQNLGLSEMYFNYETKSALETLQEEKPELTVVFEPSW

CSc1ccc(S(=O)(=O)NC(=O)Nc2c3c(cc4c2CCC4)CCC3)c2nonc12
CC50 at 72 h [1]: > 100 µM

CN(C)c1cccc2c(S(=O)(=O)NC(=O)Nc3c4c(cc5c3CCC5)CCC4)cccc12
CC50 at 72 h [1]: > 100 µM
IC50 [2]: 9.18 µM

CC(C)(O)c1coc(S(=O)(=O)NC(=O)Nc2c3c(cc4c2CCC4)CCC3)c1
CC50 at 72 h [1]: 81.4 µM

O=C(Nc1c2c(cc3c1CCC3)CCC2)NS(=O)(=O)c1ccc(N2CCOCC2)c2nonc12
CC50 at 72 h [1]: > 100 µM

CN(C)c1ccc(S(=O)(=O)NC(=O)Nc2c3c(cc4c2CCC4)CCC3)c2nonc12
Activity [3]: 586 nm
CC50 at 72 h [1]: > 100 µM
Activity [4]: 448 nm
Activity [5]: 7406 M⁻¹ cm⁻¹
Activity [6]: 16%
Activity [7]: Active

O=C(Nc1c2c(cc3c1CCC3)CCC2)NS(=O)(=O)c1ccc(N2C[C@@H]3[C@@H](CO)[C@@H]3C2)c2nonc12
CC50 at 72 h [1]: > 100 µM

O=C(Nc1c2c(cc3c1CCC3)CCC2)NS(=O)(=O)c1ccc(NC2CC(F)(F)C2)c2nonc12
CC50 at 72 h [1]: > 100 µM

CC(C)(C)OC(=O)NC1CN(c2ccc(S(=O)(=O)NC(=O)Nc3c4c(cc5c3CCC5)CCC4)c3nonc23)C1
CC50 at 72 h [1]: > 100 µM

O=C(Nc1c2c(cc3c1CCC3)CCC2)NS(=O)(=O)c1ccc(Cl)c2nonc12
CC50 at 72 h [1]: > 100 µM

O=C(Nc1c2c(cc3c1CCC3)CCC2)NS(=O)(=O)c1ccc(N2CCN(CCO)CC2)c2nonc12
CC50 at 72 h [1]: > 100 µM
IC50 [2]: 2.38 µM

O=C(Nc1c2c(cc3c1CCC3)CCC2)NS(=O)(=O)c1ccc(N2CC3CCC(C2)O3)c2nonc12
CC50 at 72 h [1]: > 100 µM

CN(C)[C@@H]1CCCC[C@H]1N(C)c1ccc(S(=O)(=O)NC(=O)Nc2c3c(cc4c2CCC4)CCC3)c2nonc12
CC50 at 72 h [1]: > 100 µM

CN(C)c1ccc(S(=O)(=O)NC(=O)Nc2c3c(cc4c2CCC4)CCC3)c2n[se]nc12
CC50 at 72 h [1]: > 100 µM

CN(C)c1ccc(S(=O)(=O)NC(=O)Nc2c3c(cc4c2CCC4)CCC3)c2nsnc12
Drug uptake [8]: Active
Activity [3]: 602 nm
CC50 at 72 h [1]: > 100 µM
Activity [4]: 450 nm
Activity [5]: 8085 M⁻¹ cm⁻¹
Activity [9]: Active
Activity [10]: Active
Activity [6]: 6%
Activity [7]: Active
